Assay results taken from patent publication US20220125765A1, “PHARMACEUTICAL COMBINATIONS COMPRISING MEBENDAZOLE AND A STRONG OR MODERATE CYP1A2 INHIBITOR” (ZEPHAPHARM LTD, priority 2019, published 2022).

Legend:
[1] = Stability in human liver microsomes without and with cimetidine or furafylline (Example 4); type: in vitro ADME; conditions: human, liver microsomes, substrate 1 μM
Description: A minus cofactor control incubation was included for each compound tested where 0.1 M phosphate buffer pH 7.4 was added instead of NADPH (minus NADPH). […] The samples were analysed for mebendazole or phenacetin using LC-MS/MS.
A minus cofactor control incubation was included for each compound tested where 0.1 M phosphate buffer pH 7.4 was added instead of cofactor (minus NADPH). […] The samples were analysed for mebendazole or phenacetin using LC-MS/MS.

NBXF SK-N-MC = test: 2D monolayer CellTiter-Blue viability, neuroblastoma SK-N-MC; type: cell-based; conditions: 72 h
Description: (§1) Seventeen compounds, including mebendazole (Batch no. […] Efficacy of compounds was assessed using CellTiter-Blue® Cell Viability Assay. Anti-tumor activity is expressed as absolute and relative IC50 and IC70 values, calculated by non-linear regression analysis.

CYP1A2 = biological target: T1, CYP1A2 (Homo sapiens, UniProt P05177); test: Cytochrome P450 reaction phenotyping, recombinant CYP1A2 (Bactosomes); conditions: for Compound Remaining (% of 0 min): CYP1A2, 5 μM
T1 sequence (P05177 1-516): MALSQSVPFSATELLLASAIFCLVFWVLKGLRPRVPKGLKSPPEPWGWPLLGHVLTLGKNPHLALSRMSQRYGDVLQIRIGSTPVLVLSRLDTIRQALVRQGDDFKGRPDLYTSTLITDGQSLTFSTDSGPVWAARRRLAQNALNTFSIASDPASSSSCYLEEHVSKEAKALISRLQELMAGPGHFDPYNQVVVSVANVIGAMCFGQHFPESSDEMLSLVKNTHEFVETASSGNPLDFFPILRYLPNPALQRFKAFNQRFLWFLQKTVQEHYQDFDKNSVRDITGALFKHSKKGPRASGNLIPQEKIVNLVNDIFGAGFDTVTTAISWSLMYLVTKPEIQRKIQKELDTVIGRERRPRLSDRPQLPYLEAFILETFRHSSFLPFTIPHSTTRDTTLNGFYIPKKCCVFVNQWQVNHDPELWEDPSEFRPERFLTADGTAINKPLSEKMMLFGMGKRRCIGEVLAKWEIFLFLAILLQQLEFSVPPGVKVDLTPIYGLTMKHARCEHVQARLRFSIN
Description: Incubations were also performed using control Bactosomes™ (no P450 enzymes present) to reveal any non-enzymatic degradation. Control compounds known to be metabolised specifically by each P450 isoform were included. All incubations were performed singularly for each test compound.
Incubations were also performed using control Bactosomes™ (no P450 enzymes present) to reveal any non-enzymatic degradation. Control compounds known to be metabolised specifically by each P450 isoform were included. All incubations were performed singularly for each test compound. […] The reactions were stopped by transferring an aliquot of incubate to quench solvent at the appropriate time points, in a 1:3 ratio. The termination plates were centrifuged at 3,000 rpm for 20 min at 4° C. to precipitate the protein.

NBXF SK-N-BE(2) = test: 2D monolayer CellTiter-Blue viability, neuroblastoma SK-N-BE(2); type: cell-based; conditions: 72 h
Description: as §1

[2] = pH 7.4, with cimetidine 30 μM, plus 30 μM cimetidine
[3] = pH 7.4, with cimetidine 100 μM, plus 100 μM cimetidine
[4] = pH 7.4, with cimetidine 300 μM, plus 300 μM cimetidine

half-life at 1 μM [1, 2]: 1.28 h
microsomal CLint at 1 μM [1, 2]: 18 µL/min/mg
half-life at 1 μM [1, 3]: 1.3 h
microsomal CLint at 1 μM [1, 3]: 17.8 µL/min/mg
half-life at 1 μM [1, 4]: 1.54 h
microsomal CLint at 1 μM [1, 4]: 15 µL/min/mg
microsomal CLint at 1 μM ([1]; pH 7.4, with furafylline 3 μM, plus 3 μM furafylline): 2.84 µL/min/mg
microsomal CLint at 1 μM ([1]; pH 7.4, with furafylline 10 μM, plus 10 μM furafylline): 0.232 µL/min/mg
microsomal CLint at 1 μM ([1]; pH 7.4, with furafylline 30 μM, plus 30 μM furafylline): 0.336 µL/min/mg
half-life at 1 μM ([1]; pH 7.4, no inhibitor): 1.04 h
microsomal CLint at 1 μM ([1]; pH 7.4, no inhibitor): 22.2 µL/min/mg
Compound Remaining (% of 0 min) (CYP1A2; 0 min): 100 % of 0 min
Compound Remaining (% of 0 min) (CYP1A2; 5 min): 80.1 % of 0 min
Compound Remaining (% of 0 min) (CYP1A2; 15 min): 45.8 % of 0 min
Compound Remaining (% of 0 min) (CYP1A2; 30 min): 20.7 % of 0 min
Compound Remaining (% of 0 min) (CYP1A2; 45 min): 9.88 % of 0 min
half-life at 5 μM (CYP1A2; human, recombinant CYP1A2 (Bactosomes), pH 7.4): 0.222 h
Structure (SMILES): COC(=O)Nc1nc2ccc(C(=O)c3ccccc3)cc2[nH]1 [Mebendazole, methyl N-(6-benzoyl-1H-benzimidazol-2-yl)carbamate]
Test/Control (%) at Drug Concentration (NBXF SK-N-MC; 1.0E+00 μM): 33%
Test/Control (%) at Drug Concentration (NBXF SK-N-MC; 1.0E+01 μM): 1%
Test/Control (%) at Drug Concentration (NBXF SK-N-MC; 1.0E+02 μM): 0%
Test/Control (%) at Drug Concentration (NBXF SK-N-MC; 1.0E−01 μM): 90%
Test/Control (%) at Drug Concentration (NBXF SK-N-MC; 1.0E−02 μM): 88%
Test/Control (%) at Drug Concentration (NBXF SK-N-MC; 3.2E+00 μM): 6%
Test/Control (%) at Drug Concentration (NBXF SK-N-MC; 3.2E+01 μM): 1%
Test/Control (%) at Drug Concentration (NBXF SK-N-MC; 3.2E−01 μM): 38%
Test/Control (%) at Drug Concentration (NBXF SK-N-MC; 3.2E−02 μM): 100%
Test/Control (%) at Drug Concentration (NBXF SK-N-MC; 3.2E−03 μM): 101%
Test/Control (%) at Drug Concentration (NBXF SK-N-BE(2); 1.0E+00 μM): 13%
Test/Control (%) at Drug Concentration (NBXF SK-N-BE(2); 1.0E+01 μM): 3%
Test/Control (%) at Drug Concentration (NBXF SK-N-BE(2); 1.0E+02 μM): −1%
Test/Control (%) at Drug Concentration (NBXF SK-N-BE(2); 1.0E−01 μM): 55%
Test/Control (%) at Drug Concentration (NBXF SK-N-BE(2); 1.0E−02 μM): 85%
Test/Control (%) at Drug Concentration (NBXF SK-N-BE(2); 3.2E+00 μM): 6%
Test/Control (%) at Drug Concentration (NBXF SK-N-BE(2); 3.2E+01 μM): 2%
Test/Control (%) at Drug Concentration (NBXF SK-N-BE(2); 3.2E−01 μM): 23%
Test/Control (%) at Drug Concentration (NBXF SK-N-BE(2); 3.2E−02 μM): 80%
Test/Control (%) at Drug Concentration (NBXF SK-N-BE(2); 3.2E−03 μM): 87%
